Source: patent US20260325561A1, “4'-SUBSTITUTED NUCLEOSIDES AND NUCLEOTIDES AS ANTIVIRAL AGENTS” (THE SCRIPPS RESEARCH INSTITUTE, priority 2023, published 2026)

Legend:
DENV-2 = assay: microbe, parasite or virus in culture; format: cell-based, DENV-2 16681; details: Dengue virus, DENV2, HepG2, 24 h, read-out: DENV-2 / HepG2 EC50
SARS-CoV-2 = assay: microbe, parasite or virus in culture; format: cell-based, SARS-CoV-2 strain USA-WA1/2020; details: Severe acute respiratory syndrome coronavirus 2, HeLa-ACE2, 24 h, read-out: SARS-CoV-2 / HeLa-ACE2 EC50
RSV A2 = assay: microbe, parasite or virus in culture; format: cell-based; details: human respiratory syncytial virus, HEp-2, 72 h, read-out: RSV A2 / Hep2 EC50
HRV 14 = assay: microbe, parasite or virus in culture; format: cell-based, Human Rhinovirus 14 strain 1059; details: Rhinovirus B, H1-HeLa, 48 h, read-out: HRV / H1 HeLa B 14 EC50
ZIKV = assay: microbe, parasite or virus in culture; format: cell-based, ZIKV MR766; details: Zika virus, HepG2, 24 h, read-out: ZIKV / HepG2 EC50
YFV = assay: microbe, parasite or virus in culture; format: cell-based, YFV strain 17D; details: Yellow fever virus, HepG2, 24 h, read-out: YFV / HepG2 EC50
in vitro [1] = details: human, hepg2 cells
in vitro [2] = details: human, hela-ace2 cells
in vitro [3] = details: human, hep2 cells
in vitro [4] = details: human, h1 hela cells
HRV 16 = assay: microbe, parasite or virus in culture; format: cell-based, Human Rhinovirus 16 strain 11757; details: Rhinovirus A, H1-HeLa, 48 h, read-out: HRV / H1 HeLa A16 EC50
CHIKV = assay: microbe, parasite or virus in culture; format: cell-based, CHIKV strain 181/25; details: Chikungunya virus, HepG2, 24 h, read-out: CHIKV / HepG2 EC50
HCMV = assay: HCMV/HFF antiviral assay; format: cell-based; details: Human betaherpesvirus 5, HFF
Cytotoxicity, HFF = format: cell-based; details: human, hff cells; read-out: HCMV/HFF CC50
HCoV-OC43 = assay: microbe, parasite or virus in culture; format: cell-based, Human Coronavirus; details: Betacoronavirus 1, OC43, HCT-8, 48 h, read-out: HCoV-OC43/HCT-8 EC50
HCoV-229E = assay: microbe, parasite or virus in culture; format: cell-based; details: Human coronavirus 229E, MRC5, 120 h, read-out: HCoV-229E/MRC5 EC50
in vitro [5] = details: human, hct-8 cells
in vitro [6] = details: human, mrc5 cells

| SMILES | EC50 (DENV-2) | EC50 (SARS-CoV-2) | EC50 (RSV A2) | EC50 (HRV 14) | EC50 (ZIKV) | EC50 (YFV) | CC50 at 72 h (in vitro [1]) | CC50 at 24 h (in vitro [2]) | CC50 (in vitro [3]) | CC50 (in vitro [4]) | EC50 (HRV 16) | EC50 (CHIKV) | EC50 (HCMV) | CC50 (Cytotoxicity, HFF) | EC50 (HCoV-OC43) | EC50 (HCoV-229E) | CC50 (in vitro [5]) | CC50 (in vitro [6]) |
| --- | --- | --- | --- | --- | --- | --- | --- | --- | --- | --- | --- | --- | --- | --- | --- | --- | --- | --- |
| OC[C@]1(F)O[C@@H](n2ccc3c(Cl)ncnc32)[C@H](O)[C@@H]1O [Example 5, (2R,3S,4R,5R)-5-(4-chloro-7H-pyrrolo[2,3-d]pyrimidin-7-yl)-2-fluoro-2-(hydroxymethyl)tetrahydrofuran-3,4-diol] | 0.1 to 1 µM | > 10 µM | > 10 µM | 1 to 10 µM | 1 to 10 µM | 1 to 10 µM | > 99 µM | > 99 µM | > 99 µM | > 99 µM |  |  |  |  |  |  |  |  |
| Nc1ncnc2c1ccn2[C@@H]1O[C@@](CO)(CF)[C@@H](O)[C@H]1O [Example 20, (2R,3S,4R,5R)-5-(4-amino-7H-pyrrolo[2,3-d]pyrimidin-7-yl)-2-(fluoromethyl)-2-(hydroxymethyl)tetrahydrofuran-3,4-diol] | > 10 µM | > 10 µM | > 10 µM | > 10 µM |  |  | > 99 µM | 10 to 99 µM | 10 to 99 µM | > 99 µM | > 10 µM | > 10 µM | > 10 µM | > 99 µM |  |  |  |  |
| CC(C)OC(=O)[C@H](C)N[P@](=O)(OC[C@@]1(F)O[C@@H](n2ccc3c(N)ncnc32)[C@H](O)[C@@H]1O)Oc1ccccc1 [Example 48, isopropyl ((S)-(((2S,3S,4R,5R)-5-(4-amino-7H-pyrrolo[2,3-d]pyrimidin-7-yl)-2-fluoro-3,4-dihydroxytetrahydrofuran-2-yl)methoxy)(phenoxy)phosphoryl)-L-alaninate] | 0.1 to 1 µM | 1 to 10 µM |  | 1 to 10 µM | 1 to 10 µM | 1 to 10 µM | 10 to 99 µM | 10 to 99 µM |  | 10 to 99 µM | 1 to 10 µM |  |  |  |  |  |  |  |
| COc1ncnc2c1c(F)cn2[C@@H]1O[C@](F)(CO)[C@@H](O)[C@H]1O [Example 22, (2S,3S,4R,5R)-2-fluoro-5-(5-fluoro-4-methoxy-7H-pyrrolo[2,3-d]pyrimidin-7-yl)-2-(hydroxymethyl)tetrahydrofuran-3,4-diol] | 0.1 to 1 µM | 1 to 10 µM | > 10 µM | > 10 µM | 1 to 10 µM | 0.1 to 1 µM | 1 to 10 µM | 1 to 10 µM | 10 to 99 µM | 10 to 99 µM | > 10 µM |  | 1 to 10 µM | > 99 µM |  |  |  |  |
| Nc1ncnc2c1c(F)cn2[C@@H]1O[C@](F)(CO)[C@@H](O)[C@H]1O [Example 15, (2S,3S,4R,5R)-5-(4-amino-5-fluoro-7H-pyrrolo[2,3-d]pyrimidin-7-yl)-2-fluoro-2-(hydroxymethyl)tetrahydrofuran-3,4-diol] | < 0.1 µM | < 0.1 µM | > 10 µM | > 10 µM |  |  | < 1 µM | < 1 µM | 1 to 10 µM | < 1 µM | < 0.1 µM |  | 1 to 10 µM | 1 to 10 µM | < 0.1 µM | 0.1 to 1 µM | < 1 µM | 1 to 10 µM |
| NC(=O)c1cn([C@@H]2O[C@](F)(CO)[C@@H](O)[C@H]2O)c2ncnc(N)c12 [Example 14, 4-amino-7-((2R,3R,4S,5S)-5-fluoro-3,4-dihydroxy-5-(hydroxymethyl)tetrahydrofuran-2-yl)-7H-pyrrolo[2,3-d]pyrimidine-5-carboxamide] | < 0.1 µM | 0.1 to 1 µM | < 0.1 µM | > 10 µM |  |  | < 1 µM | < 1 µM | 1 to 10 µM | 1 to 10 µM | > 10 µM |  | 0.1 to 1 µM | 1 to 10 µM | 0.1 to 1 µM | > 10 µM | 1 to 10 µM | 1 to 10 µM |
| [N-]=[N+]=N[C@]1(CO)O[C@@H](n2ccc3c(N)ncnc32)[C@H](O)[C@@H]1O [Example 2, (2R,3S,4R,5R)-5-(4-amino-7H-pyrrolo[2,3-d]pyrimidin-7-yl)-2-azido-2-(hydroxymethyl)tetrahydrofuran-3,4-diol] | > 10 µM | > 10 µM |  |  |  |  | > 99 µM | > 99 µM |  |  |  | > 10 µM |  |  |  |  |  |  |
| Nc1ncnc2c1ccn2[C@@H]1C[C@](F)(CO)[C@@H](O)[C@H]1O [Example 30, (1S,2S,3S,5R)-5-(4-amino-7H-pyrrolo[2,3-d]pyrimidin-7-yl)-3-fluoro-3-(hydroxymethyl)cyclopentane-1,2-diol] | > 10 µM | > 10 µM | 0.1 to 1 µM | > 10 µM |  |  | 10 to 99 µM | 10 to 99 µM | 1 to 10 µM | 10 to 99 µM | > 10 µM | > 10 µM |  |  |  |  |  |  |
| N#C[C@]1(CO)O[C@@H](n2ccc3c(N)ncnc32)[C@H](O)[C@@H]1O [Example 32, (3S,4R,5R)-5-(4-amino-7H-pyrrolo[2,3-d]pyrimidin-7-yl)-3,4-dihydroxy-2-(hydroxymethyl)tetrahydrofuran-2-carbonitrile] | > 10 µM | > 10 µM | > 10 µM | > 10 µM |  |  | > 99 µM | > 99 µM | > 99 µM | > 99 µM | > 10 µM | > 10 µM |  |  |  |  |  |  |
| CNc1ncnc2c1c(F)cn2[C@@H]1O[C@](F)(CO)[C@@H](O)[C@H]1O [Example 35, (2S,3S,4R,5R)-2-fluoro-5-(5-fluoro-4-(methylamino)-7H-pyrrolo[2,3-d]pyrimidin-7-yl)-2-(hydroxymethyl)tetrahydrofuran-3,4-diol] | > 10 µM | > 10 µM | > 10 µM | > 10 µM | > 10 µM | 1 to 10 µM | 10 to 99 µM | > 99 µM | 10 to 99 µM | 10 to 99 µM |  |  |  |  |  |  |  |  |
| Nc1nc(F)nc2c1ncn2[C@@H]1O[C@](F)(CO)[C@@H](O)[C@H]1O [Example 31, (2S,3S,4R,5R)-5-(6-amino-2-fluoro-9H-purin-9-yl)-2-fluoro-2-(hydroxymethyl)tetrahydrofuran-3,4-diol] | 0.1 to 1 µM | 1 to 10 µM | > 10 µM | > 10 µM |  |  | < 1 µM | 1 to 10 µM | < 1 µM | 1 to 10 µM | > 10 µM | 0.1 to 1 µM |  |  |  |  |  |  |
| Nc1nc2c(ncn2[C@H]2C[C@H](O)[C@@](F)(CO)O2)c(=O)[nH]1 [Example 40, 2-amino-9-((2R,4S,5S)-5-fluoro-4-hydroxy-5-(hydroxymethyl)tetrahydrofuran-2-yl)-1,9-dihydro-6H-purin-6-one] | > 10 µM | > 10 µM |  |  | > 10 µM | > 10 µM | > 99 µM | > 99 µM |  |  |  |  |  |  |  |  |  |  |
| Nc1ncnn2c([C@@H]3O[C@](F)(CO)[C@@H](O)[C@H]3O)cnc12 [Example 19, (2S,3S,4R,5S)-5-(4-aminoimidazo[2,1-f][1,2,4]triazin-7-yl)-2-fluoro-2-(hydroxymethyl)tetrahydrofuran-3,4-diol] | 0.1 to 1 µM | 1 to 10 µM | > 10 µM | > 10 µM |  |  | < 1 µM | 1 to 10 µM | 1 to 10 µM | 1 to 10 µM | > 10 µM | 0.1 to 1 µM |  |  |  |  |  |  |
| Nc1ncnc2c1c(Cl)cn2[C@@H]1O[C@](F)(CO)[C@@H](O)[C@H]1O [Example 33, (2S,3S,4R,5R)-5-(4-amino-5-chloro-7H-pyrrolo[2,3-d]pyrimidin-7-yl)-2-fluoro-2-(hydroxymethyl)tetrahydrofuran-3,4-diol] | < 0.1 µM | < 0.1 µM | < 0.1 µM | > 10 µM |  |  | < 1 µM | 1 to 10 µM | 10 to 99 µM | 1 to 10 µM | > 10 µM |  | 0.1 to 1 µM | 10 to 99 µM | 0.1 to 1 µM | > 10 µM | < 1 µM | 10 to 99 µM |
